In US4499088A, “Cephem compounds” (Fujisawa Pharmaceutical Co., Ltd., priority 1983, dated 1985):

Columns and labels:
Proteus mirabilis 18 = experiment: Minimal inhibitory concentration, two-fold agar-plate dilution method; format: cell-based; settings: HI-agar, 37° C., 20 hours
Method: (§1) (A) Minimal inhibitory concentration (1) Test Method In vitro antibacterial activity was determined by the two-fold agar-plate dilution method as described below. One loopful of an overnight culture of each test strain in Trypticase-soy broth (10^8 viable cells per ml) was streaked on heart infusion agar (HI-agar) containing graded concentrations of representative test compound, and the minimal inhibitory concentration (MIC) was expressed in terms of μg/ml after incubation at 37° C. for 20 hours.

Proteus vulgaris 2 = experiment: as above; format: cell-based; settings: HI-agar, 37° C., 20 hours
Method: as §1

Urinary excretion = format: in vivo; settings: rat; rats, oral administration of 100 mg/kg, urine 0 to 6 and 6 to 24 hours, bioassay; read-out: Urinary recovery in 24 hours (%)
Method: Urine of rats was collected with a urine collector at 0 to 6, and 6 to 24 hours after oral administration of 100 mg/kg of the test antibiotic. The antibiotic levels in the urine samples were bioassayed with the standard solution prepared with M/15 phosphate buffer (pH 7.0) and the urinary recovery in 24 hours was calculated.

in vivo = settings: rat, po, 100 mg/kg
Method: Rats anesthetized with pentobarbital were fixed in supine position, and a polyethylene cannula was inserted into the bile duct. Bile samples were collected at 0 to 3, 3 to 6, and 6 to 24 hours after oral administration of 100 mg/kg of the test antibiotic. The antibiotic levels in the bile samples were bioassayed with the standard solutions prepared with M/15 phosphate buffer (pH 7.0) and the biliary recovery in 24 hours were calculated.

SMILES: O=C(O)CO/N=C(\C(=O)NC1C(=O)N2C(C(=O)O)=C(CSc3ccc4nnnn4n3)CSC12)c1cscn1 (stereo not drawn) [Test Compound (1), 7-[2-Carboxymethoxyimino-2-(4-thiazolyl)acetamido]-3-(tetrazolo[1,5-b]pyridazin-6-yl)thiomethyl-3-cephem-4-carboxylic acid (syn isomer)]
- MIC (Proteus mirabilis 18): < 0.025 µg/mL
- MIC (Proteus vulgaris 2): < 0.025 µg/mL
- dose excreted at 24 h (Urinary excretion): 20.2%
- dose excreted at 24 h (in vivo): 8.97%
